# Results as given in patent US20080255206A1, “Rxr Agonists and Antagonists, Alone or in Combination with Ppar Ligands, in the Treatment of Metabolic and Cardiovascular Diseases” (priority 2005, published 2008).
# Like-named read-outs stand apart in the source and are kept apart here.
# What was measured:
# [1] = system: human skin inflammation induced by topical 9-cis RA; test: Therapeutic effect on 9-cis RA-induced human skin inflammation, clinical pilot trial; type: in vivo
# Description: In the following pilot clinical trial on one healthy volunteer the compounds are applied epicutaneously. 9-cis RA being known for its skin inflammation potential is used in concentrations of 0.1%, 0.3% and 1%. Compound 15 (RXR antagonist) concentration is 1%. The compounds are solved in ethanol/propylene glycol (1:1). 9-cis RA is applied twice daily, 7 days a week, for two consecutive weeks. The site of application is an area of 3×3=9 cm^2 on the abdominal skin. The volume is 0.1 ml per administration. The treatment with compound 15, administered twice daily in a concentration of 1%, is started on day 15 when treatment with 9-cis RA is discontinued. This treatment lasts from day 15 to day 22. For a correct evaluation comparative areas with inflammation induced by 9-cis RA are treated with the vehicle, ethanol/propylene glycol, from day 15 to 22. The post-treatment period lasts until day 28.
# The signs and symptoms of skin inflammation are recorded on a 0-4 scale, as described in example 21.
# For evaluation of the anti-inflammatory effect of compound 15, the sum of the daily inflammation scores from day 15 to day 28 is determined, as well as the time to complete disappearance of skin inflammation from day 15 on.
# [2] = system: MMP-1 mRNA; test: MMP-1 mRNA in synovial fibroblasts (real time PCR); type: cell-based, human
# Description: Furthermore, it is determined whether this is accompanied by a modulation in the accumulation of the mRNA encoding catabolic enzyme matrix metalloproteinase-1 (MMP-1), responsible for degradation of human cartilage and consequently joint destruction in man. Adherent synovial fluid cells taken from a patient with RA are used after 5 passages in an in vitro assay for cartilage destruction. The cells incubated in flasks coated with 0.1% (0.1 g/100 ml) human cartilage powder are fixed using Matrigel® (BD Biosciences, Becton, Dickinson & Co., Boston, Mass., USA).
# This is conducted in the presence or absence of IL-1β (100 pg/ml).
# [3] = system: NMRI mice; test: 2 weeks toxicology study in NMRI mice; type: in vivo
# Description: Oral administration of the RXR agonist compound 1 is tested by daily oral gavage in a 2 weeks toxicology study in NMRI mice. […] This signifies a favourable effect on the lipid profile, which is important in therapy of diabetes and lipid disorders.
# [4] = system: skin of rats; test: Topical administration to the skin of rats (irritation); type: in vivo; settings: concentrations up to 2.5%
# [5] = system: rats; test: 4-weeks toxicology study in rats, oral gavage; type: in vivo
# Description: […]. […] This symptom of hair loss is observed, dose-dependently, with all doses. Clinical pathology is limited to minor disturbances.
# [6] = system: normal skin of mice; test: Effect on normal, non-inflamed skin of mice; type: in vivo, C57BL/6 mice
# Description: The effect of the RXR antagonist compound 15 on normal skin of mice is investigated. The ears of C57BL/6 mice are treated epicutaneously (topically) for 4 consecutive days with compound 15 in a concentration of 0.05% and 2.5% in acetone/ethanol (1:1, v/v). Comparison with vehicle control. Skin reactions, in particular inflammation, erythema, desquamation, and edema, are observed daily. Myeloperoxidase (MPO) activity is determined. The activity of MPO is considered the most sensitive criterium for the assessment of inflammation of the skin (see above, Examples 6 and 7).
# [7] = Pharmacokinetics, single dose administration; type: in vivo; settings: plasma; for concentration at 1 h: po, microsuspension in oil, read-out: Plasma level one hour after oral administration
# Description: Single dose administration: Compound 15 is administered orally as a microsuspension in oil. When measured one hour after oral administration, plasma levels are 480 ng/ml with 20 mg/kg and 2755 ng/ml with 100 mg/kg. There is a dose proportional increase in plasma levels of compound 15 within this dose range.
# [8] = 9-cis RA 0.1% day 1-14, followed by vehicle day 15-22
# [9] = 9-cis RA 0.3% day 1-14, followed by vehicle day 15-22
# [10] = 9-cis RA 1% day 1-14, followed by vehicle day 15-22
# [11] = 9-cis RA 0.1% day 1-14, followed by compound 15 1% day 15-22
# [12] = 9-cis RA 0.3% day 1-14, followed by compound 15 1% day 15-22
# [13] = 9-cis RA 1% day 1-14, followed by compound 15 1% day 15-22
structure (smiles),measurement,setting,value
"CC1=C(/C=C/C(C)=C\C=C\C(C)=C\C(=O)O)C(C)(C)CCC1 [9-cis RA, 9-cis retinoic acid, reference compound]",Sum of daily inflammation scores from day 15 to disappearance of inflammation,[1]; [8],6.5
same,Time in days from day 15 to disappearance of inflammation,[1]; [8],8 days
same,Sum of daily inflammation scores from day 15 to disappearance of inflammation,[1]; [9],14
same,Time in days from day 15 to disappearance of inflammation,[1]; [9],13 days
same,Sum of daily inflammation scores from day 15 to disappearance of inflammation,[1]; [10],14.5
same,Time in days from day 15 to disappearance of inflammation,[1]; [10],9 days
same,"MMP-1 mRNA, fold increase of baseline value","[2]; 10^−7 M, after 24 hours",2.60 relative units
same,"MMP-1 mRNA, fold increase of baseline value","[2]; 10^−8 M, 0 hours",1 relative units
same,"MMP-1 mRNA, fold increase of baseline value","[2]; 10^−8 M, 2 hours",0.98 relative units
same,"MMP-1 mRNA, fold increase of baseline value","[2]; 10^−8 M, 6 hours",1.31 relative units
same,"MMP-1 mRNA, fold increase of baseline value","[2]; 10^−8 M, 12 hours",3.39 relative units
same,"MMP-1 mRNA, fold increase of baseline value","[2]; 10^−8 M, 24 hours",3.79 relative units
same,"MMP-1 mRNA, fold increase of baseline value","[2]; 10^−8 M, 48 hours",1.47 relative units
same,"MMP-1 mRNA, fold increase of baseline value","[2]; 10^−8 M, after 24 hours",3.39 relative units
same,"MMP-1 mRNA, fold increase of baseline value","[2]; 10^−9 M, after 24 hours",1.54 relative units
"CC1=C(/C=C/C2=C(/C=C/C(C)=C/C(=O)O)CCCCC2)C(C)(C)CCC1 [Compound 1, (2E,4E)-3-methyl-5-[2-[(E)-2-(2,6,6-trimethyl-1-cyclohexen-1-yl)ethenyl]-1-cyclohepten-1-yl]-2,4-pentadienoic acid]","Lipid profile (triglycerides, HDL-, LDL-cholesterol)",[3]; all treated groups,"tendency to a decrease in triglycerides, an increase in HDL-cholesterol and a decrease in LDL-cholesterol"
same,Signs or symptoms of the hypervitaminosis A syndrome,[3]; all treated groups,no signs or symptoms of the hypervitaminosis A syndrome
same,"Tolerability, oral","[3]; daily oral gavage, 2 weeks, up to 400 mg/kg/day",very well tolerated
same,"Tolerability, intraperitoneal","[3]; intraperitoneally, 200 mg/kg/day",well tolerated
same,"Body weight, intraperitoneal","[3]; intraperitoneally, 400 mg/kg/day",retarded body weight increase
same,Irritation or inflammation of the skin,[4],does not lead to irritation or inflammation of the skin
"CCCCOc1c(\C(C)=C/C=C/C(C)=C/C(=O)O)cc(C(C)(C)C)cc1C(C)(C)C [Compound 15, (2E,4E,6Z)-7-[2-butoxy-3,5-bis(1,1-dimethylethyl)phenyl]-3-methyl-2,4,6-octatrienoic acid]",Sum of daily inflammation scores from day 15 to disappearance of inflammation,[1]; [11],2.5
same,Time in days from day 15 to disappearance of inflammation,[1]; [11],3 days
same,Sum of daily inflammation scores from day 15 to disappearance of inflammation,[1]; [12],5.5
same,Time in days from day 15 to disappearance of inflammation,[1]; [12],6 days
same,Sum of daily inflammation scores from day 15 to disappearance of inflammation,[1]; [13],11
same,Time in days from day 15 to disappearance of inflammation,[1]; [13],8 days
same,Irritation or inflammation of the skin,[4],does not lead to irritation or inflammation of the skin
same,Haematology and clinical chemistry,[5]; 4 weeks oral gavage,"No abnormalities in haematology, no abnormalities in clinical chemistry"
same,Histopathology,[5]; 4 weeks oral gavage,only some changes in the 500/750 mg/kg dose group
same,"Transaminases, triglycerides and cholesterol",[5]; 4 weeks oral gavage,"No increase in transaminases, triglycerides, and cholesterol"
same,"Tolerability, oral","[5]; daily doses of 50, 250, 500, eventually 750 mg/kg, 4 weeks",well tolerated with the exception of patchy alopecia
same,"MMP-1 mRNA, fold increase of baseline value","[2]; 10^−7 M, after 24 hours",0.68 relative units
same,"MMP-1 mRNA, fold increase of baseline value","[2]; 10^−8 M, 0 hours",1 relative units
same,"MMP-1 mRNA, fold increase of baseline value","[2]; 10^−8 M, 2 hours",1.13 relative units
same,"MMP-1 mRNA, fold increase of baseline value","[2]; 10^−8 M, 6 hours",0.81 relative units
same,"MMP-1 mRNA, fold increase of baseline value","[2]; 10^−8 M, 12 hours",1.12 relative units
same,"MMP-1 mRNA, fold increase of baseline value","[2]; 10^−8 M, 24 hours",0.87 relative units
same,"MMP-1 mRNA, fold increase of baseline value","[2]; 10^−8 M, 48 hours",0.83 relative units
same,"MMP-1 mRNA, fold increase of baseline value","[2]; 10^−8 M, after 24 hours",1.12 relative units
same,"MMP-1 mRNA, fold increase of baseline value","[2]; 10^−9 M, after 24 hours",1.05 relative units
same,Clinical signs or symptoms of skin inflammation on normal skin,"[6]; epicutaneous 0.05% and 2.5%, 4 consecutive days",does not induce clinical signs or symptoms of a skin inflammation
same,MPO activity compared to the vehicle control (in words),"[6]; normal skin, 0.05%",no significant change
same,"MPO activity, % of that of the vehicle control","[6]; normal skin, 2.5%",57%
same,concentration at 1 h,[7]; single dose 20 mg/kg,480 ng/mL
same,concentration at 1 h,[7]; single dose 100 mg/kg,2760 ng/mL
same,bioavailability,"[7]; at the mentioned low doses, intravenous versus oral PK data",40%
